# Laboratory results reported in PMC11508620, “Assessing the Potential of 1,2,3-Triazole-Dihydropyrimidinone Hybrids Against Cholinesterases: In Silico, In Vitro, and In Vivo Studies” (International Journal of Molecular Sciences, 2024).
# Like-named read-outs stand apart in the source and are kept apart here.
# What was measured:
# [1] = biological target: T1, electrophorus electricus AChE (eeAChE) (Electrophorus electricus, UniProt O42275); test: biochemical; settings: [S] = 121 µM; 0.1 M phosphate buffer pH 8.0, 25 °C; mean ± SD
# T1 construct: purified enzymes of animal origin, namely electrophorus electricus AChE (eeAChE) and equine serum BuChE (eqBuChE); purchased Sigma–Aldrich; host or cells: electric eel (animal origin)
# T1 sequence (O42275 24-633): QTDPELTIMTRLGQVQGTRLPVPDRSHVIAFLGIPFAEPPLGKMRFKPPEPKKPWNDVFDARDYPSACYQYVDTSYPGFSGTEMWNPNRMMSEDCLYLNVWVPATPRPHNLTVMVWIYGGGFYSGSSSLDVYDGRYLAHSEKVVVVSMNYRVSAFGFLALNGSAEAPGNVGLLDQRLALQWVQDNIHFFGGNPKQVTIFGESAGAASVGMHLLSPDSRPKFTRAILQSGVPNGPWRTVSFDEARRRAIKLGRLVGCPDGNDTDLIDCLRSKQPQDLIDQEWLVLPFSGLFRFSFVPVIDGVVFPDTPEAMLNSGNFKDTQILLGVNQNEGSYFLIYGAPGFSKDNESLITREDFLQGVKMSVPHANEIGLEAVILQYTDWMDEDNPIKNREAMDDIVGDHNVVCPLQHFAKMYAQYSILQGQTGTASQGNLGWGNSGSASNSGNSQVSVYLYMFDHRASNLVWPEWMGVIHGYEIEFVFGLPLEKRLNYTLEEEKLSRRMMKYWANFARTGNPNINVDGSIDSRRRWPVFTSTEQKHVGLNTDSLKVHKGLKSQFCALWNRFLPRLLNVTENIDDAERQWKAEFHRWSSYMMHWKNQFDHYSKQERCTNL
# Experimental: In order to evaluate the inhibitory activity against cholinesterase enzymes (AChE and BuChE), well-established in vitro models were used—purified enzymes of animal origin, namely electrophorus electricus AChE (eeAChE) and equine serum BuChE (eqBuChE). Hybrids A1–3 and B1–5 (Figure 3) were evaluated in vitro for cholinesterase inhibition using Ellman’s colorimetric method. […] The values are expressed as the mean ± standard deviation (SD).
# The enzymatic activity of electrophorus electricus AChE (eeAChE) and equine serum BuChE (eqBuCHE) was assessed using the Ellman colorimetric assay, with minor modifications. […] Enzyme kinetics were monitored using UV-Vis spectroscopy using 0.875 mM 5,5′-dithiobis(2-nitrobenzoic acid) (DTNB) (Ellman’s reagent) as a chromogenic agent.
# For this purpose, GraphPad Prism 8.02 software was used to plot %I vs. [I] (5 different concentrations) via a non-linear regression.
# [2] = biological target: equine serum BuChE (eqBuChE) (Equus caballus, UniProt P81908); test: biochemical; assay type: biochemical; settings: for IC50: [S] = 112 µM, 0.1 M phosphate buffer pH 8.0, 25 °C, mean ± SD; for Ki: eqBuChE
# Chain of equine serum BuChE (eqBuChE) (P81908 whole entry): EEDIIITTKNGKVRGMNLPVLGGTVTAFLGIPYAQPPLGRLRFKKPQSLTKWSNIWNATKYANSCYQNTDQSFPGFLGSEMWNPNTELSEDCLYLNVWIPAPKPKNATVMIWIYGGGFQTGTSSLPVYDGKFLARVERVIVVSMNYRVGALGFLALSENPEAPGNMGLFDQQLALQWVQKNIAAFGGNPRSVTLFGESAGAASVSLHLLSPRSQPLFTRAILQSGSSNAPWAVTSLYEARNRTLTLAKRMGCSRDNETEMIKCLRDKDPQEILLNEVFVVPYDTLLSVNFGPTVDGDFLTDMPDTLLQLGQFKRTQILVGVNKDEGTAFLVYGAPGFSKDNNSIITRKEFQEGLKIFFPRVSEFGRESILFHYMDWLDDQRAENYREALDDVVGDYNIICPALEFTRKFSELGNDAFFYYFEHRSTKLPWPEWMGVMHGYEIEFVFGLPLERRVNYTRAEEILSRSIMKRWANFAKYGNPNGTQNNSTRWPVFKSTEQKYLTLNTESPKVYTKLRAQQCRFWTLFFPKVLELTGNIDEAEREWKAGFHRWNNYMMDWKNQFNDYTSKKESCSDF
# [3] = FRAP antioxidant assay; settings: for Antioxidant capacity, FRAP method: 6–200 µM; for Trolox Equivalent Antioxidant Capacity (TEAC), FRAP method: at 200 μM, compared to Trolox
# [4] = Artemia salina lethal toxicity assay; assay type: in vivo; settings: in vivo
# Experimental: (§1) Artemia salina was used for in vivo general toxicity assessment of the compounds A1–3 and B1–5.
# (§2) The ARTOXKIT M protocol was used. The percentage of dyed nauplii of Artemia salina, grown in the presence of variable concentrations of the inhibitor compounds (A1–3 and B1–5) (0.01 to 100 µM).
# (§3) Saline water with 1% DMSO was used as a blank.
# (§4) In parallel, a K2Cr2O7 test was performed as quality control.
# [5] = tested on: Artemia salina; test: Artemia salina lethal toxicity assay; assay type: in vivo; settings: 24 h
# Experimental: as §1, §2, §3, §4
# [6] = tested on: BuChE; settings: cited from earlier work
# [7] = tested on: AChE; settings: cited from earlier work
# [8] = tested on: eqBuChE; settings: cited from earlier work
# [9] = biological target: T2, eqBuChE (Equus caballus, UniProt P81908); test: STD-NMR study with eqBuChE; assay type: binding, equine; settings: hybrid 2.5 mM, eqBuChE 2.5 μM
# T2 construct: purified enzymes of animal origin, namely electrophorus electricus AChE (eeAChE) and equine serum BuChE (eqBuChE); purchased Sigma–Aldrich; host or cells: equine serum
# T2 sequence (P81908 whole entry): as above
# Experimental: STD-NMR is a very useful validation technique for docking studies, which we have used previously with success.
# The NMR spectroscopy experiments were performed on a Bruker Avance III 400 MHz spectrometer equipped with a 5 mm broadband (PABBO BB/19F-1H/D Z-GRD) resonance probe head. The STD-NMR experiments were realized according to our established method. Basically, NMR and STD-NMR experiments were carried out with solvent suppression and a 10 ms spinlock filter after the 90◦ pulse to reduce residual signals from the protein. For selective saturation, cascades of Gaussian pulses with a length of 50 ms and 40–60 dB of attenuation were employed, with an interpulse delay of 1 ms. The on-resonance and off-resonance frequencies were set to 0 and 12,000 Hz, respectively. STD-NMR controls were performed using the ligand itself. Blank experiments were performed to guarantee the absence of direct saturation of the ligand proton signals. The relaxation delay was properly adjusted so that the experiment time length was kept constant at 6.5 s. Water suppression at 1880 Hz (4.7 ppm) was conducted. Specifically, the saturation time to obtain the STD buildup curves was recorded at 0.25, 0.5, 1, 2, 3, 4, and 5 s. A 5 μM eqBuChE solution was prepared in a D2O. Five mM stock solutions were prepared for hybrids A1 and B4. […]. The final concentrations of ligand and enzyme were […], respectively.
SMILES,IC50 [1] [µM],IC50 [2] [µM],"Antioxidant capacity, FRAP method [3]",NOEC (No Observed Effect Concentration) [5] [µM],other results
"O=C1NC(Cn2cc(-c3ccc(Br)cc3)nn2)=C(n2cc(-c3ccccc3)nn2)C(c2ccccc2)N1 (centres unmarked) [Hybrid B2, 6-((4-(4-Bromophenyl)-1,2,3-triazol-1-yl)methyl)-4-phenyl-5-(4-phenyl-1,2,3-triazol-1-yl)-3,4-dihydropyrimidin-2-one]",> 100,> 100,null values,1,LC50 at 24 h [4]: > 200 µM; LOEC (Lowest Observed Effect Concentration) [5]: 100 µM
"CC1=C(n2cc(-c3ccccc3)nn2)C(c2ccc(Cl)cc2)NC(=O)N1 (centres unmarked) [Hybrid A2, 4-(4-Chlorophenyl)-6-methyl-5-(4-phenyl-1,2,3-triazol-1-yl)-3,4-dihydropyrimidin-2-one]",> 100,24 ± 1,–,200,–
"[K+].[K+].[O]=[Cr](=[O])([O-])[O][Cr](=[O])(=[O])[O-] [Hybrid K2Cr2O7, K2Cr2O7, reference compound]",–,–,–,–,LC50 ([5]; reference test): 23.6 µg/mL; LOEC (Lowest Observed Effect Concentration) ([5]; reference test): 18 mg/L; NOEC (No Observed Effect Concentration) ([5]; reference test): 10 mg/L
CC(=O)c1ccc(OCc2cccc(C(F)(F)F)c2)cc1OCc1cn(CCc2c[nH]c3ccccc23)nn1 [I],–,–,–,–,IC50 [6]: 0.00013 µM
"O=C1NC(Cn2cc(-c3ccccc3)nn2)=C(n2cc(-c3ccccc3)nn2)C(c2ccc(OCc3ccccc3)cc2)N1 (centres unmarked) [Hybrid B5, 4-(4-(Benzyloxy)phenyl)-5-(4-phenyl-1,2,3-triazol-1-yl)-6-((4-phenyl-1,2,3-triazol-1-yl)methyl)-3,4-dihydropyrimidin-2-one]",> 100,> 100,some potential to reduce Fe(III) to Fe(II),200,"Trolox Equivalent Antioxidant Capacity (TEAC), FRAP method [3]: 0.216"
O=c1ccc2ccc(OCCCCCn3cc(CNc4c5c(nc6ccccc46)CCCC5)nn3)cc2o1 [II],–,–,–,–,IC50 [7]: 0.095 µM; IC50 [6]: 0.006 µM
"O=C1NC(Cn2cc(-c3ccccc3)nn2)=C(n2cc(-c3ccccc3)nn2)C(c2ccccc2)N1 (centres unmarked) [Hybrid B1, 4-Phenyl-5-(4-phenyl-1,2,3-triazol-1-yl)-6-((4-phenyl-1,2,3-triazol-1-yl)methyl)-3,4-dihydropyrimidin-2-one]",> 100,53 ± 4,null values,200,LC50 at 24 h [4]: > 200 µM
CC(C)[C@@H]1CC[C@@H](C)C[C@@H]1n1cc(CN2C(=O)C(=O)c3ccccc32)nn1 [III],–,–,–,–,IC50 [8]: 0.46 µM
COc1ccc(C2NC(=O)NC(CCc3ccc(O)cc3)=C2C(=O)CCc2ccc(O)cc2)cc1 (centres unmarked) [V],–,–,–,–,IC50 [7]: 1.34 µM
COc1cc(OC)c2c(=O)c(OCCCCn3cc(CN4C(=O)C(=O)c5ccccc54)nn3)c(-c3ccc(OC)c(OC)c3)oc2c1 [IV],–,–,–,–,IC50 [8]: 11.2 µM
"O=C1NC(Cn2cc(CN3C(=O)C(=O)c4ccccc43)nn2)=C(n2cc(-c3ccccc3)nn2)C(c2ccccc2)N1 (centres unmarked) [Hybrid B4, 1-((1-((2-Oxo-6-phenyl-5-(4-phenyl-1,2,3-triazol-1-yl)-1,2,3,6-tetrahydropyrimidin-4-yl)methyl)-1,2,3-triazol-4-yl)methyl)indoline-2,3-dione]",> 100,1 ± 0.1,null values,200,"Ki ([2]; inhibition constant for binding to the enzyme-substrate complex, read-out: Kib (converted)): 1.4 µM; Ki ([2]; inhibition constant for binding to the free enzyme, read-out: Kia (converted)): 1.1 µM; Type of inhibition of eqBuChE ([2]; methods of Dixon and Cornish-Bowden): mixed mode of inhibition; STD-NMR attenuation, H11 and H13 of the CH2 groups ([9]; 4 s saturation, H16 set to 100%): 33%"
"CC1=C(n2cc(-c3ccccc3)nn2)C(c2ccc(OCc3ccccc3)cc2)NC(=O)N1 (centres unmarked) [Hybrid A3, 4-(4-(Benzyloxy)phenyl)-6-methyl-5-(4-phenyl-1,2,3-triazol-1-yl)-3,4-dihydropyrimidin-2-one]",> 100,> 100,–,200,–
CCOC(=O)C1=C(C[Se]C(=O)c2ccc(C)cc2)NC(=O)NC1c1ccccc1 (centres unmarked) [VI],–,–,–,–,IC50 [7]: 7.21 µM
"CC1=C(n2cc(-c3ccccc3)nn2)C(c2ccccc2)NC(=O)N1 (centres unmarked) [Hybrid A1, 6-Methyl-4-phenyl-5-(4-phenyl-1,2,3-triazol-1-yl)-3,4-dihydropyrimidin-2-one]",> 100,12 ± 2,–,200,"STD-NMR attenuation, H3 ([9]; 3 s saturation, H9 set to 100%): 87%; STD-NMR attenuation, H7 ([9]; 3 s saturation, H9 set to 100%): 88%"
"O=C1NC(Cn2cc(C3CC3)nn2)=C(n2cc(-c3ccccc3)nn2)C(c2ccccc2)N1 (centres unmarked) [Hybrid B3, 6-((4-Cyclopropyl-1H-1,2,3-triazol-1-yl)methyl)-4-phenyl-5-(4-phenyl-1,2,3-triazol-1-yl)-3,4-dihydropyrimidin-2-one]",> 100,58 ± 3,some potential to reduce Fe(III) to Fe(II),200,"Trolox Equivalent Antioxidant Capacity (TEAC), FRAP method [3]: 0.257"
